US20040082585A1, “Prodrugs of substituted polycyclic compounds useful for selective inhibition of the coagulation cascade” (Pharmacia Corporation, priority 2001, published 2004)

Legend:
[1] = Metabolic stability assay, hepatic S9 fraction incubation (rat); assay type: in vitro ADME; settings: rat liver S9 fraction 2.0 mg/mL protein, 1.0 μM substrate, 1.0 mM NADPH, 37° C., 30 minutes
Description: (§1) In order to determine the metabolic stability of each of the tested compounds, the following assay conditions were used: 100 mM-phosphate buffer, 1.0 mM NADPH, 3.3 mM magnesium chloride, 2.0 mg/mL protein from Hepatic S9 Fraction and 1.0 μM of substrate.
(§2) The assay was performed on a 96-well conical shaped plate with a volume of 200 μL, after addition of methanol. For each species, a set of samples was prepared as shown below (volumes are in μL).
(§3) The plate was sealed and incubated in a Thermal Mixer at 37° C. for 30 minutes at 400 rpm. 100 μL of methanol was added to each well and the plate was mixed for several minutes and then covered with an aluminum seal. Finally, the plate was centrifuged at 1000 rpm for 10 minutes.
(§4) The assay was analyzed using liquid chromatography and positive ion electrospray mass spectrometry. The chromatography column used was Agilent Zorbax SB-C18 (3.0×150 mm, 5 μm) with a flow rate of 0.5 mL/min.
(§5) Calculations were performed to determine the percent remaining, which is calculated by dividing the Peak Area Ratio of the analyte measured in the active protein versus the Peak Area Ratio of the analyte measured in the inactivated protein sample. The Peak Area Ratio is defined as the peak area of the analyte divided by the peak area of the internal standard. Analyte is defined as the substrate of a specific measurable metabolite.

[2] = Metabolic stability assay, hepatic S9 fraction incubation (human); assay type: in vitro ADME; settings: human liver S9 fraction 2.0 mg/mL protein, 1.0 μM substrate, 1.0 mM NADPH, 37° C., 30 minutes
Description: as §1, §2, §3, §4, §5

[3] = Bioavailability and prodrug conversion in male rats; assay type: in vivo; settings: Crl:CD(SD)BR, rat, blood, fasted, oral 10 mg free base of active moiety per kg, IV 1 mg free base/kg, LC-MS/MS, read-out: BA (bioavailability of prodrug after oral adminstration)
Description: Healthy male rats [Crl:CD(SD)BR] were obtained from Charles River Breeding Laboratory (Canada). […] The animals weighed 250 to 320 g and were individually identified by labeling on each metabolism cage. The rats were housed in individual metabolism cages during dosing and sample collections. The animals were acclimated to a diet of Purina Rodent Chow #5002 (Ralston Purina, St. Louis, Mo.) for at least 5 days and were fasted for 15-20 hours prior to the administration of the compound. Food was available from 4 hours after dose administration and ad libitum throughout the remainder of the study.
Each animal received the prodrug orally at an equivalent dose of 10 mg of free base of active moiety per kg of body weight or active moiety orally at an equivalent dose of 10 mg equivalent free base per kg body weight. For intravenous (IV) study, the animals received 1 mg free base/kg body weight. Sufficient amount of the test article was dissolved in appropriate vehicle (See table below) such that the final concentration of dose solution was 2.0 mg free base/mL and 0.5 mg free base/mL for oral and IV doses, respectively. The dose volume was 5 mL/kg and 2 mL/kg for oral and IV doses, respectively
Blood samples were collected from the jugular vein at specified time intervals. Concentrations of test article and/or prodrug were analyzed using a LC-MS/MS procedure.
Model independent pharmacokinetic parameters (Cmax, Tmax, AUC, T1/2, CL, Vss) were obtained using Watson computer program. The bioavailability (BA) was calculated as follows: [formula]
The percentages of conversion of prodrug to active moiety was calculated using the following equation: [formula]
“AUC” represents area under the curve.

Structure (SMILES)	S9 Rat (percent remaining) [1] [%]	S9 Hum. (percent remaining) [2] [%]	bioavailability [3] [%]
CC(C)Nc1ncc(-c2cc(N)cc(C(F)(F)F)c2)n(CC(=O)NCc2ccc(C(=N)NO)cc2)c1=O [Compound 1]	11	2	–
CONC(=N)c1ccc(CNC(=O)Cn2c(-c3cc(N)cc(C(F)(F)F)c3)cnc(NC(C)C)c2=O)cc1 [Compound 4]	0	0	17
CC(C)Nc1ncc(-c2cc(N)cc(C(F)(F)F)c2)n(CC(=O)NCc2ccc(C3=NC(C)(C)ON3)cc2)c1=O [Compound 5]	13	0.50	5
CC(C)Nc1ncc(-c2cc(N)cc(C(F)(F)F)c2)n(CC(=O)NCc2ccc3c(N)noc3c2)c1=O [Compound 6]	–	–	7
CCOC(=O)O/N=C(\N)c1ccc(CNC(=O)Cn2c(-c3cc(N)cc(C(F)(F)F)c3)cnc(NC(C)C)c2=O)cc1 [Compound 7]	54	5	–
CCONC(=N)c1ccc(CNC(=O)Cn2c(-c3cc(N)cc(C(F)(F)F)c3)cnc(NC(C)C)c2=O)cc1 [Compound 8]	3	1	20
CC(C)Nc1ncc(-c2cc(N)cc(C(F)(F)F)c2)n(CC(=O)NCc2ccc3c(N)nc(=O)oc3c2)c1=O [Compound 9]	0	0	1
CCCCOC(=O)O/N=C(\N)c1ccc(CNC(=O)Cn2c(-c3cc(N)cc(C(F)(F)F)c3)cnc(NC(C)C)c2=O)cc1 [Compound 11]	44	40	–
COC(=O)c1cc(N)cc(-c2cnc(NC(C)C)c(=O)n2CC(=O)NCc2ccc(C(=N)NO)cc2)c1 [Compound 12]	–	–	3

Continued, values first:

S9 Rat (percent remaining) [1] [%]	S9 Hum. (percent remaining) [2] [%]	bioavailability [3] [%]	Structure (SMILES)
1	1	1	CCNC(=O)O/N=C(\N)c1ccc(CNC(=O)Cn2c(-c3cc(N)cc(C(F)(F)F)c3)cnc(NC(C)C)c2=O)cc1 [Compound 14]
25	39	4	CC(C)Nc1ncc(-c2cc(N)cc(C(F)(F)F)c2)n(CC(=O)NCCc2c(F)c(F)c3c(N)noc3c2F)c1=O [Compound 15]
0	0	–	CC(C)COC(=O)O/N=C(\N)c1ccc(CNC(=O)Cn2c(-c3cc(N)cc(C(F)(F)F)c3)cnc(NC(C)C)c2=O)cc1 [Compound 16]
36	5	–	CC(C)Nc1ncc(-c2cc(N)cc(NC(=O)C(C)C)c2)n(CC(=O)NCc2ccc(C(=N)NO)cc2)c1=O [Compound 18]
–	–	2	CC(C)Nc1ncc(-c2cc(N)cc(C(F)(F)F)c2)n(CC(=O)NCc2ccc(/C(N)=N/OC(=O)OC(C)C)cc2)c1=O [Compound 20]
1	1	–	COc1ccc(OC(=O)O/N=C(\N)c2ccc(CNC(=O)Cn3c(-c4cc(N)cc(C(F)(F)F)c4)cnc(NC(C)C)c3=O)cc2)cc1 [Compound 24]
13	3	–	CC(C)Nc1ncc(-c2cc(N)cc(C(F)(F)F)c2)n(CC(=O)NCc2ccc(C3=NOC(C)(c4ccccc4)N3)cc2)c1=O (stereo not shown) [Compound 25]
14	17	–	CC(C)Nc1ncc(-c2cc(N)cc(C(F)(F)F)c2)n(CC(=O)NCc2ccc(C(=N)NOCc3ccccc3)cc2)c1=O [Compound 29]
